Measurements as given in patent US8039668B2, “Naphthalene-based inhibitors of anti-apoptotic proteins” (Burnham Institute for Medical Research, priority 2008, dated 2011).
Read-outs that look alike come from different tables or passages of the source. Blank lines part the entries; values can stand above or below the molecule they belong to.

Key:
BCL-XL = BCL-XL (Homo sapiens, UniProt Q07817); test: 1D 1H-NMR binding assay; design: key to 1D-^1H NMR: +++, Very Active; ++, Active; +, Mild; −, Weak; details: for 1D-^1H NMR: BCL-XL 25 μM, compound 200 μM; for 1D ^1H-NMR Binding Assay (BCL-XL): Table 9
Description: By observing the aliphatic region of the spectra, binding could be readily detected due to chemical shift changes in active site methyl groups of Ile, Leu, Thr, Val or Ala (region between −0.8 and 0.3 ppm). All experiments were performed with a 600 MHz spectrometer Bruker Avance 600 equipped with four rf channels and z-axis pulse-field gradients.

[1] = test system: human lymphoma RS11846 cell line; test: Apoptosis, Annexin V-FITC and propidium iodide assay; assay type: cell-based; details: for EC50: Homo sapiens
Description: The apoptotic activity of the compounds against RS11846 cells was assessed by staining with Annexin V- and propidium iodide (PI). Lymphoma cell line, RS11846, was cultured in RPMI 1640 medium (Mediatech Inc., Herndon, Va. 20171) containing 10% fetal bovine serum (Mediatech Inc., Herndon, Va. 20171) and Penicillin/Streptomycin (Mediatech Inc., Herndon, Va. 20171). […] The percentage of viable cells was determined by FITC-Annexin V- and propidium iodide (PI)-labeling, using an Apoptosis Detection kit (BioVision Inc.), and analyzing stained cells by flow cytometry (FACSort; Bectin-Dickinson, Inc.; Mountain View, Calif.). Cells that were annexin-V-negative and PI-negative were considered viable.

[2] = test system: H460 human lung cell line; test: Cell viability, ATP-LITE assay; assay type: cell-based; details: Homo sapiens
Description: (§1) The activity of the compounds against human cancer cell lines (PC3ML, H460, H1299, RS11846) were assessed by using the ATP-LITE assay (PerkinElmer). All cells were seeded in either F12 or RPMI1640 medium with 5 mM L-glutamine supplemented with 5% fetal bovine serum (Mediatech Inc.), penicillin and streptomycin (Omega). For maintenance, cells were cultured in 5% FBS. Cells plated into 96 well plates at varying initial densities depending on doubling time. H460 and H1299 plated at 2000 cells/well, A549 and PC3 at 3000 cells/well, and RS118456S at 10,000 cells/well. Compounds were diluted to final concentrations with 0.1% DMSO. Prior to dispensing compounds onto cells, fresh 5% media was placed into wells. Administration of compounds occurred 24 hours after seeding into the fresh media. Cell viability was evaluated using ATP-LITE reagent (PerkinElmer) after 72 hours of treatment. Data were normalized to the DMSO control-treated cells using Prism version 5.01 (Graphpad Software).

PC3ML cells = test: Cell viability, ATP-LITE assay; assay type: cell-based, human; details: Homo sapiens, PC3-ML, ATP-LITE assay
Description: as §1

H1299 cell line = test: Cell viability, ATP-LITE assay; assay type: cell-based, human; details: Homo sapiens
Description: as §1

B6Bcl-2 transgenic mice = test system: B6Bcl-2 transgenic mice
Description: Transgenic mice expressing BCL-2 have been described as the B6 line. The BCL-2 transgene res a minigene version of a t(14;18) translocation in which the human BCL-2 gene is fused with the immunoglobulin heavy-chain (IgH) locus and associated IgH enhancer. The transgene was propagated on the Balb/c background.
After 24 hours, B6BCL2 mice were sacrificed by intraperitoneal injection of lethal dose of Avertin. Spleen was removed and weighed. […] Spleen tissue was fixed in z-FIX for 3 days and rinsed in PBS, and saved for histological analysis of spleen (H&E staining and TUNEL assay).

[3] = read-out: EC50 RS11846, Table 3, Annexin V-FITC and propidium iodide assay
[4] = NCI-H1299, read-out: EC50 H1299
[5] = Table 3, Annexin V-FITC and propidium iodide assay, heading: EC50 RS11846, read-out: EC50 RS11846
[6] = NCI-H460, heading: EC50 H460, Table 3, ATP-LITE assay, read-out: EC50 H460
[7] = Table 3, heading: EC50 PC3ML, read-out: EC50 PC3ML
[8] = NCI-H1299, heading: EC50 H1299, Table 3, ATP-LITE assay, read-out: EC50 H1299
[9] = Annexin V-FITC and propidium iodide assay, read-out: EC50 RS11846
[10] = NCI-H460, ATP-LITE assay, read-out: EC50 H460
[11] = NCI-H1299, ATP-LITE assay, read-out: EC50 H1299

Sequence of BCL-XL (Q07817 whole entry): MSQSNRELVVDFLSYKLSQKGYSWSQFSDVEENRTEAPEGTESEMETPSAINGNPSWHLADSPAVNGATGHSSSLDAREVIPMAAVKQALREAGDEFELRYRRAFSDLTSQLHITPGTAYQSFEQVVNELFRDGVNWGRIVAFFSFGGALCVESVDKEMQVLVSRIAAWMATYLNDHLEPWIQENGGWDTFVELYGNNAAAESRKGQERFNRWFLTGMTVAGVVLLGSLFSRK

Structure (SMILES): Cc1cc2c(C(=O)NCc3cccc(Cl)c3)c(O)c(O)cc2c(O)c1-c1c(C)cc2c(C(=O)NCc3cccc(Cl)c3)c(O)c(O)cc2c1O [Compound 8i, N^5,N^5′-bis(3-chlorobenzyl)-1,1′,6,6′,7,7′-hexahydroxy-3,3′-dimethyl-2,2′-binaphthyl-5,5′-dicarboxamide]
1D-^1H NMR (BCL-XL; Table 3): +++ | EC50 [1, 3]: 7.3 µM | EC50 ([2]; NCI-H460, read-out: EC50 H460): 3.3 µM | EC50 (PC3ML cells; read-out: EC50 PC3ML, Table 3): 8.3 µM | EC50 (H1299 cell line; [4]): 5.2 µM

Structure (SMILES): Cc1cc2c(C(=O)NCc3ccccc3)c(O)c(O)cc2c(O)c1-c1c(C)cc2c(C(=O)NCc3ccccc3)c(O)c(O)cc2c1O [Compound 8g, N^5,N^5′-dibenzyl-1,1′,6,6′,7,7′-hexahydroxy-3,3′-dimethyl-2,2′-binaphthyl-5,5′-dicarboxamide]
1D-^1H NMR (BCL-XL; Table 3): + | EC50 [1, 3]: 9.3 µM | EC50 ([2]; NCI-H460, read-out: EC50 H460): 4.6 µM | EC50 (PC3ML cells; read-out: EC50 PC3ML, Table 3): 13.7 µM | EC50 (H1299 cell line; [4]): 3.6 µM

Structure (SMILES): Cc1cc2c(C(=O)NC3CCCC3)c(O)c(O)cc2c(O)c1-c1c(C)cc2c(C(=O)NC3CCCC3)c(O)c(O)cc2c1O [Compound 8b, N^5,N^5′-dicyclopentyl-1,1′,6,6′,7,7′-hexahydroxy-3,3′-dimethyl-2,2′-binaphthyl-5,5′-dicarboxamide]
1D-^1H NMR (BCL-XL; Table 3): + | EC50 [1, 5]: 13.7 µM | EC50 [2, 6]: 8.5 µM | EC50 (PC3ML cells; [7]): 12.2 µM | EC50 (H1299 cell line; [8]): 8 µM

Structure (SMILES): Cc1cc2cc(O)c(O)cc2c(O)c1-c1c(C)cc2cc(O)c(O)cc2c1O [Compound 13, 3,3′-dimethyl-2,2′-binaphthyl-1,1′,6,6′,7,7′-hexaol]
1D-^1H NMR (BCL-XL; Table 4): − | EC50 [1, 9]: 24.5 µM | induction of apoptosis of the RS11846 cell line ([1]; in words): weak or no apoptosis | EC50 [2, 10]: > 10 µM | Tox (B6Bcl-2 transgenic mice; Bcl-2 transgenic mouse, single ip injection 72 μmol/kg): 0 | activity in transgenic mice model (B6Bcl-2 transgenic mice; single ip 72 μmol/kg): no activity | EC50 (PC3ML cells; read-out: EC50 PC3ML): > 10 µM | EC50 (H1299 cell line; [11]): 13.4 µM

Structure (SMILES): CCCCC(=O)c1c(O)c(O)cc2c(O)c(-c3c(C)cc4c(C(=O)CCCC)c(O)c(O)cc4c3O)c(C)cc12 [Compound XX, 1,1′-(1,1′,6,6′,7,7′-hexahydroxy-3,3′-dimethyl-2,2′-binaphthyl-5,5′-diyl)dipentan-1-one]
1D ^1H-NMR Binding Assay (BCL-XL) (BCL-XL): + | EC50 ([1]; read-out: RS11846 EC50 (Annexin V- and propidium iodide assay), Table 9): 11.7 µM

Structure (SMILES): Cc1cc2c(C(=O)Nc3ccccc3)c(O)c(O)cc2c(O)c1-c1c(C)cc2c(C(=O)Nc3ccccc3)c(O)c(O)cc2c1O [Compound 8a, 1,1′,6,6′,7,7′-hexahydroxy-3,3′-dimethyl-N^5,N^5′-diphenyl-2,2′-binaphthyl-5,5′-dicarboxamide]
1D-^1H NMR (BCL-XL; Table 3): + | EC50 ([2]; NCI-H460, Table 3, ATP-LITE assay, heading: EC50 H460, read-out: EC50 H460): 3.5 µM | EC50 (H1299 cell line; [8]): 8 µM

Structure (SMILES): Cc1cc2c(C(=O)Nc3ccc(Oc4ccccc4)cc3)c(O)c(O)cc2c(O)c1-c1c(C)cc2c(C(=O)Nc3ccc(Oc4ccccc4)cc3)c(O)c(O)cc2c1O [Compound 8c, 1,1′,6,6′,7,7′-hexahydroxy-3,3′-dimethyl-N^5,N^5′-bis(4-phenoxyphenyl)-2,2′-binaphthyl-5,5′-dicarboxamide]
1D-^1H NMR (BCL-XL; Table 3): + | EC50 [1, 5]: 10.8 µM | EC50 [2, 6]: 10.1 µM | EC50 (PC3ML cells; [7]): 8.5 µM | EC50 (H1299 cell line; [8]): 17 µM

Results, then the molecule that gave them:

1D-^1H NMR (BCL-XL; Table 4): +
Structure (SMILES): Cc1cc2c(CC(C)C)c(O)c(O)cc2c(O)c1-c1c(C)cc2c(CC(C)C)c(O)c(O)cc2c1O [Compound 12a, 5,5′-diisobutyl-3,3′-dimethyl-2,2′-binaphthyl-1,1′,6,6′,7,7′-hexaol]

1D-^1H NMR (BCL-XL; Table 3): + | EC50 [1, 5]: 5.6 µM | EC50 ([2]; NCI-H460, Table 3, ATP-LITE assay, read-out: EC50 H460): 0.7 µM
Structure (SMILES): Cc1cccc(CCNC(=O)c2c(O)c(O)cc3c(O)c(-c4c(C)cc5c(C(=O)NCCc6cccc(C)c6)c(O)c(O)cc5c4O)c(C)cc23)c1 [Compound 8o, 1,1′,6,6′, 7,7′-hexahydroxy-3,3′-dimethyl-N^5,N^5′-bis(3-methylphenethyl)-2,2′-binaphthyl-5,5′-dicarboxamide]

1D-^1H NMR (BCL-XL; Table 3): + | EC50 [1, 5]: > 10 µM
Structure (SMILES): Cc1cc2c(C(=O)NCC3CC3)c(O)c(O)cc2c(O)c1-c1c(C)cc2c(C(=O)NCC3CC3)c(O)c(O)cc2c1O [Compound 8l, N^5,N^5′-bis(cyclopropylmethyl)-1,1′,6,6′,7,7′-hexahydroxy-3,3′-dimethyl-2,2′-binaphthyl-5,5′-dicarboxamide]

1D-^1H NMR (BCL-XL; Table 3): +++ | EC50 [1, 5]: 4.2 µM | EC50 [2, 6]: 1.5 µM
Structure (SMILES): CCC(NC(=O)c1c(O)c(O)cc2c(O)c(-c3c(C)cc4c(C(=O)NC(CC)c5ccccc5)c(O)c(O)cc4c3O)c(C)cc12)c1ccccc1 (centres unmarked) [Compound 8f, 1,1′,6,6′,7,7′-hexahydroxy-3,3′-dimethyl-N^5,N^5′-bis(1-phenylpropyl)-2,2′-binaphthyl-5,5′-dicarboxamide]

1D-^1H NMR (BCL-XL; Table 3): + | EC50 [1, 5]: 12.6 µM | EC50 [2, 6]: 16.7 µM | EC50 (PC3ML cells; [7]): 12.2 µM | EC50 (H1299 cell line; [8]): 28.7 µM
Structure (SMILES): Cc1cc2c(C(=O)Nc3cccc(C(F)(F)F)c3)c(O)c(O)cc2c(O)c1-c1c(C)cc2c(C(=O)Nc3cccc(C(F)(F)F)c3)c(O)c(O)cc2c1O [Compound 8e, 1,1′,6,6′,7,7′-hexahydroxy-3,3′-dimethyl-N^5,N^5′-bis(3-(trifluoromethyl)phenyl)-2,2′-binaphthyl-5,5′-dicarboxamide]

1D-^1H NMR (BCL-XL; Table 3): + | EC50 [1, 5]: 4.7 µM | EC50 [2, 6]: 4.1 µM | EC50 (PC3ML cells; [7]): 8.3 µM | EC50 (H1299 cell line; [8]): 5 µM
Structure (SMILES): CCc1cccc(NC(=O)c2c(O)c(O)cc3c(O)c(-c4c(C)cc5c(C(=O)Nc6cccc(CC)c6)c(O)c(O)cc5c4O)c(C)cc23)c1 [Compound 8d, N^5,N^5′-bis(3-ethylphenyl)-1,1′,6,6′,7,7′-hexahydroxy-3,3′-dimethyl-2,2′-binaphthyl-5,5′-dicarboxamide]

1D ^1H-NMR Binding Assay (BCL-XL) (BCL-XL): + | EC50 ([1]; Table 9, read-out: RS11846 EC50 (Annexin V- and propidium iodide assay)): 17.1 µM
Structure (SMILES): CCC(C)C(=O)c1c(O)c(O)cc2c(O)c(-c3c(C)cc4c(C(=O)C(C)CC)c(O)c(O)cc4c3O)c(C)cc12 (centres unmarked) [Compound XIX, 1,1′-(1,1′,6,6′,7,7′-hexahydroxy-3,3′-dimethyl-2,2′-binaphthyl-5,5′-diyl)bis(2-methylbutan-1-one)]

1D-^1H NMR (BCL-XL; Table 4): + | EC50 [1, 9]: 3.2 µM | EC50 [2, 10]: 1.2 µM | EC50 (PC3ML cells; read-out: EC50 PC3ML): 8.3 µM | EC50 (H1299 cell line; [11]): 1.28 µM
Structure (SMILES): Cc1cc2c(Cc3ccccc3)c(O)c(O)cc2c(O)c1-c1c(C)cc2c(Cc3ccccc3)c(O)c(O)cc2c1O [Compound 12d, 5,5′-dibenzyl-3,3′-dimethyl-2,2′-binaphthyl-1,1′,6,6′,7,7′-hexaol]

1D-^1H NMR (BCL-XL; Table 3): +++ | EC50 [1, 5]: 4.8 µM | EC50 [2, 6]: 2.9 µM | EC50 (PC3ML cells; Table 3, read-out: EC50 PC3ML): 10.2 µM | EC50 (H1299 cell line; [8]): 3.1 µM
Structure (SMILES): Cc1cccc(CNC(=O)c2c(O)c(O)cc3c(O)c(-c4c(C)cc5c(C(=O)NCc6cccc(C)c6)c(O)c(O)cc5c4O)c(C)cc23)c1 [Compound 8h, 1,1′,6,6′,7,7′-hexahydroxy-3,3′-dimethyl-N^5,N^5′-bis(3-methylbenzyl)-2,2′-binaphthyl-5,5′-dicarboxamide]

1D-^1H NMR (BCL-XL; Table 4): +
Structure (SMILES): Cc1cc2c(CCC(C)C)c(O)c(O)cc2c(O)c1-c1c(C)cc2c(CCC(C)C)c(O)c(O)cc2c1O [Compound 12b, 5,5′-diisopentyl-3,3′-dimethyl-2,2′-binaphthyl-1,1′,6,6′,7,7′-hexaol]
